From patent US7589080B2, “β-cyclodextrin compositions, and use to prevent transmission of sexually transmitted diseases” (priority 2000, dated 2009)

How the values were obtained:
[1] = test system: HIV; details: inhibition of sphingolipid synthesis; cited from earlier work
[2] = test system: vaginal epithelium; test: Vaginal epithelial toxicity (ethidium bromide homodimer-1 staining); type: in vivo, CF-1 mice; details: 1% (w/v), intravaginal, 15 min
Method: CF-1 mice were pretreated with 2.5 mg progestin; one week later, three groups of three mice each were inoculated with 50 Tl of either PBS, 1% (w/v) nonoxynol-9, or 3% (w/v) 2-OH-βCD (20 mM). Each test solution also contained the membrane-impermeant DNA binding fluorescent dye, ethidium bromide homodimer-1 (20 TM, Molecular Probes; Eugene Oreg.; Hyytinen et al., supra, 1994). Fifteen min following exposure to the test agents the mice were euthanized, the vaginas were dissected and opened longitudinally, and viewed using a fluorescent microscope and TRITC filter set.
To examine the effect of a βCD on the vaginal epithelium, CF-1 mice were pretreated with progesterone and one week later were inoculated with 50 Tl of either phosphate buffered saline (PBS), 1% (w/v) nonoxynol-9, or 3% (w/v) 2-OH-βCD (20 mM) containing the membrane impermeant DNA binding fluorescent dye, ethidium bromide homodimer-1. The vaginas of the mice were viewed by fluorescent microscopy.

Compound	Reduction of HIV infection of CD4+ human cells [1]	Damage to vaginal epithelium [2]
CCCCCCCCCCCCCCCC(=O)NC(CN1CCOCC1)C(O)c1ccccc1 (centres unmarked) [PPMP, 1-phenyl-2-hexadecanoylamino-3-morpholino-1-propanol]	50%	
nonoxynol-9		considerable epithelial damage
